Emission maximum data for 16 compounds are collected here from the Deep4Chem optical property database.

A short description of this data set: solvent given as SMILES.

`c1ccc(-c2nc(-c3ccc(-n4c5ccccc5c5ccc6c(c7ccccc7n6-c6ccccc6)c54)cc3)c3sc4ccccc4c3n2)cc1` registered an emission maximum (in Cc1ccccc1) of 465.01 nm.

Regarding `Oc1ccccc1-c1nc2c(c3c1-c1ccccc1CC3)-c1ccccc1CC2`, the emission maximum (in ClCCl) was found to be 413 nm.

`COc1ccc(C#Cc2c3cc4ccccc4cc3c(C#Cc3ccc(OC)cc3)c3cc4ccccc4cc23)cc1` showed an emission maximum (in ClCCl) of 706 nm.

Compound `CCCCCCCCCCn1c(-c2cc(-c3nc4ccc(C)cc4n3CCCCCCCCCC)cc(-c3nc4ccc(C)cc4n3CCCCCCCCCC)c2)nc2ccc(C)cc21` gave an emission maximum (in C1CCOC1) of 379.1 nm.

With `N#C/C(=C\c1ccc(-c2ccncc2)cc1)c1ccc(-c2ccncc2)cc1`, the emission maximum (in ClCCl) was 460 nm.

Take `CCN(CC)c1ccc2cc(/C=C/c3cccc[n+]3CCCS(=O)(=O)[O-])c(=O)oc2c1`: the emission maximum by setting is: (in C1CCOC1) 641 nm; (in CC#N) 634 nm; (in CC(C)=O) 639 nm; (in CS(C)=O) 642 nm; (in Cc1ccccc1) 641 nm; (in O) 627 nm. The same compound yielded an emission maximum (in OCC(O)CO) of 625 nm.

`CN(C)c1ccc(-c2nc3c(c4c2-c2ccccc2CC4)-c2ccccc2CC3)cc1` had an emission maximum (in C1CCOC1) of 452 nm; an emission maximum (in CC#N) of 463 nm; an emission maximum (in CCCCCC) of 422 nm; an emission maximum (in CCOC(C)=O) of 449 nm; an emission maximum (in CO) of 460 nm; an emission maximum (in CS(C)=O) of 470 nm. The emission maximum reads like this: (in Cc1ccccc1) 436 nm; (in ClCCl) 449 nm.

As for `CCCCN(CCCC)c1ccc(C#Cc2cc(C#Cc3ccc(N(CCCC)CCCC)cc3)c(C#Cc3ccc(C(F)(F)F)cc3)cc2C#Cc2ccc(C(F)(F)F)cc2)cc1`, the emission maximum turned out to be 541 nm (in ClCCl) and 493 nm (in c1ccccc1).

As for `CCCCCCCCCC[n+]1cc2ccc3c[n+](CCCCCCCCCC)cc4ccc(c1)c2c34`, the emission maximum (in CC#N) is on record as 424 nm.

For `CCOC(=O)CN1C(=O)C2=C(c3ccc(N4CCCCC4)cc3)N(CC(=O)OCC)C(=O)C2=C1c1ccccc1`, the emission maximum is 587 nm (in CC#N), 601 nm (in CS(C)=O) and 563 nm (in Cc1ccccc1).

On to `Cc1cc(C)c(B2c3cc(C(C)(C)C)cc4ccc5ccc6cc(C(C)(C)C)cc2c6c5c34)c(C)c1`, for which the emission maximum (in C1CCCCC1) is recorded as 430 nm.

Turning to `O=C1CC(c2cccc([N+](=O)[O-])c2)c2c(c3ccccc3c3nc4ccccc4nc23)O1` (stereo not drawn), the emission maximum worked out at 417 nm (in CCCCCC); 429 nm (in CCOC(C)=O); 443 nm (in CN(C)C=O); 452 nm (in CO); 452 nm (in CS(C)=O); 428 nm (in ClC(Cl)Cl).

`c1ccc(-c2nc(-c3ccccc3)nc(-c3cc(-n4c5ccccc5c5ccccc54)c(-n4c5ccccc5c5ncccc54)c(-n4c5ccccc5c5ccccc54)c3)n2)cc1` yielded an emission maximum (in C1CCOC1) of 481.97 nm; an emission maximum (in CC#N) of 535.03 nm; an emission maximum (in CCCCCC) of 422.11 nm; an emission maximum (in Cc1ccccc1) of 447.02 nm; an emission maximum (in ClCCl) of 507.14 nm.

For `CC(C)(C)C1Nc2ccccc2C(=O)N1Cc1ccccc1` (stereo not drawn), the emission maximum by setting is: (in CC#N) 409 nm; (in CCCCCCCCCCCCCCCC) 381 nm; (in CO) 439 nm; (in ClC(Cl)Cl) 404 nm; (in c1ccccc1) 393 nm.

Compound `CC(C)(C)c1cc(/C2=C3\C=CC(=N3)/C(c3ccc([N+](=O)[O-])cc3)=c3/cc/c([nH]3)=C(\c3ccc([N+](=O)[O-])cc3)C3=N/C(=C(/c4cc(C(C)(C)C)cc(C(C)(C)C)c4)c4cc2c[nH]4)C=C3)cc(C(C)(C)C)c1` had an emission maximum (in CC(=O)N(C)C) of 717 nm.

For the compound `CNc1ncc2nc(C(=O)OC)n(Cc3ccccc3)c2n1`, the emission maximum (in C1COCCO1) is 405 nm, the emission maximum (in CC#N) is 413 nm, the emission maximum (in CO) worked out at 429 nm and the emission maximum (in ClCCl) came out at 403 nm.
